target: T1, Neuropeptide Y receptor type 5 (Homo sapiens, UniProt Q15761); assay: Inhibition of 125 I-PYY binding to human Neuropeptide Y receptor type 5
T1 sequence (Q15761 whole entry): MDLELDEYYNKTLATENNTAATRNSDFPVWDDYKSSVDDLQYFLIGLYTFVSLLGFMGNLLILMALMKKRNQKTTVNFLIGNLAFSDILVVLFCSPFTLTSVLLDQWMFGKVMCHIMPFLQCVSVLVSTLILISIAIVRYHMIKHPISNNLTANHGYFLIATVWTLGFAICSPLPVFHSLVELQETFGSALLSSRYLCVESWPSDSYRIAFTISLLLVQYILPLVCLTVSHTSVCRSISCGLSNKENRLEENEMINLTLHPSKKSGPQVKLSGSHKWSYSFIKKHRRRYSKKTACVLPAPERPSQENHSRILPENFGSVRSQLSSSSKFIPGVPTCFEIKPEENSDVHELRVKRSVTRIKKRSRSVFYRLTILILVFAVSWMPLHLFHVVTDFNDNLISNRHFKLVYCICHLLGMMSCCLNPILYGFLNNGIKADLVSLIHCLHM

SMILES	IC50
COc1ccc2c(c1)C(O)(CNCC1CCN(C(=O)Cn3c(=O)sc4ccc(Cl)cc43)CC1)CCC2 (stereo not drawn)	0.028 µM
COc1ccc2c(c1)CC(NCC1CCN(C(=O)Cn3c(=O)sc4ccc(Cl)cc43)CC1)CCC2 (stereo not drawn)	0.0007 µM
COc1ccc2c(c1)C(O)(CNCC1CCN(CCNS(=O)(=O)c3cccc(C)c3)CC1)CCC2 (stereo not drawn)	0.013 µM
COc1ccc2c(c1)CC(CNC(=O)C1CCN(C(=O)Cn3c(=O)sc4ccc(Cl)cc43)CC1)CCC2 (stereo not drawn)	0.0012 µM
COc1ccc2c(c1)CC(NCC1CCN(C(=O)CNS(=O)(=O)c3cccc4ccccc34)CC1)CCC2 (stereo not drawn)	0.0037 µM
COc1ccc2c(c1)C(O)(CNCC1CCN(CCNS(=O)(=O)c3cccc4ccccc34)CC1)CC2 (stereo not drawn)	0.066 µM

The next lines start with the values.

IC50	SMILES
0.053 µM	O=C(Nc1nccs1)C1CCN(C(=O)Cn2c(=O)sc3ccc(Cl)cc32)CC1 [FR-73966]
0.056 µM	COc1ccc2c(c1)CC(O)(CNCC1CCN(CCNS(=O)(=O)c3cccc4ccccc34)CC1)CCC2 (stereo not drawn)
0.024 µM	COc1ccc2c(c1)C(O)(CNCCC1CCN(CCNS(=O)(=O)c3cccc4ccccc34)CC1)CCC2 (stereo not drawn)
0.011 µM	COc1ccc2c(c1)C(O)(CNCC1CCN(CCNS(=O)(=O)c3cccc(Cl)c3C)CC1)CCC2 (stereo not drawn)
0.00054 µM	COc1ccc2c(c1)C(O)(CNCC1CCN(CCNS(=O)(=O)c3cccc4ccccc34)CC1)CCC2 (stereo not drawn)
0.001 µM	COc1ccc2c(c1)C(O)(CNC(=O)C1CCN(C(=O)Cn3c(=O)sc4ccc(Cl)cc43)CC1)CCC2 (stereo not drawn)

target: T2, Neuropeptide Y receptor type 1 (Homo sapiens, UniProt P25929); assay: Compound was evaluated for the inhibitory activity against human Neuropeptide Y receptor type 1
T2 sequence (P25929 whole entry): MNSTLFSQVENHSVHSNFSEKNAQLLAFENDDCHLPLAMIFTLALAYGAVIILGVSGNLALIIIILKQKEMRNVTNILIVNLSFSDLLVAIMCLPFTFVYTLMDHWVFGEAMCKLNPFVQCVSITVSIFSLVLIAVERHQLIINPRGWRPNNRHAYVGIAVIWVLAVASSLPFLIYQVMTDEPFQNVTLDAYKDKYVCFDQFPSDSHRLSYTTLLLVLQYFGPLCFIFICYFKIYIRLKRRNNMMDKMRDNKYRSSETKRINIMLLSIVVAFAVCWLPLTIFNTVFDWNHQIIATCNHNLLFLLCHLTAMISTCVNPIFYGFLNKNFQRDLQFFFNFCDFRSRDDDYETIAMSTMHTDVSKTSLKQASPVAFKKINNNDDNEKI

IC50	SMILES
12 µM	COc1ccc2c(c1)CC(NCC1CCN(C(=O)Cn3c(=O)sc4ccc(Cl)cc43)CC1)CCC2 (stereo not drawn)

Source: ChEMBL document CHEMBL1135229, “Novel potent antagonists of human neuropeptide Y Y5 receptors. Part 3: 7-methoxy-1-hydroxy-1-substituted tetraline derivatives” (Bioorg Med Chem Lett, 2002)
